Values of other authors as cited in US20240299353A1, “COMPOSITIONS AND METHODS FOR TREATING […] 5-MEO-DMT” (Alvarius Pharmaceuticals Ltd., priority 2021, published 2024).

Columns and labels:
5-HT2AR = 5-HT2AR (Rattus norvegicus, UniProt P14842); conditions: read-out: Ki for the 5-HT2AR; non-canonical signaling, liberation of arachidonic acid; cited from earlier work
[1] = cited from earlier work

Sequence of 5-HT2AR (P14842 whole entry): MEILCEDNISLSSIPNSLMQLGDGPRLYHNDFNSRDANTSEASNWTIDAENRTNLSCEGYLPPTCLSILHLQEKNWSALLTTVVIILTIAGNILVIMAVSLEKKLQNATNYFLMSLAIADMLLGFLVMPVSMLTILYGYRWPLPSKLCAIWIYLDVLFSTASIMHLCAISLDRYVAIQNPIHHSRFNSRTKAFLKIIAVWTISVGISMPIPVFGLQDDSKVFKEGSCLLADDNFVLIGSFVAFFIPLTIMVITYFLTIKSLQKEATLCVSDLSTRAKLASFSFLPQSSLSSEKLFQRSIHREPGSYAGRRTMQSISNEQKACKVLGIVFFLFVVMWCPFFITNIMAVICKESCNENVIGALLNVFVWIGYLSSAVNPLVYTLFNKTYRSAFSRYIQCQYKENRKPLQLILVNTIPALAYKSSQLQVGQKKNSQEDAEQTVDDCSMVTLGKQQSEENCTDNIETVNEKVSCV

## COc1ccc2[nH]cc(CCN(C)C)c2c1 [5-MeO-DMT, 5-methoxy-N,N-dimethyltryptamine]
5-HT2AR
  Ki: 190 nM
[1]; rat brain regions
  blood-brain barrier passage: readily crosses the blood-brain barrier
[1]; throughout the brain
  brain drug concentrations with increase in dose: increased non-proportionally
